# Source: ChEMBL document CHEMBL5053556, “Design, Synthesis, and Biological Evaluation of a Novel Series of Teriflunomide Derivatives as Potent Human Dihydroorotate Dehydrogenase Inhibitors for Malignancy Treatment” (J Med Chem, 2021)
# How the values were obtained:
# [1] = Plasma protein binding in rat at 0.1 uM incubated for 5 hrs by LC-MS analysis; format: ADME, cell-free; details: read-out: PPB (converted)
# [2] = Acute toxicity in BALB/c mouse assessed effect on feeding at 400 mg/kg, po; format: organism-based; details: in vivo
# [3] = Acute toxicity in BALB/c mouse assessed as effect on heart at 400 mg/kg, po measured on day 14 by H and E staining based assay; format: organism-based; details: in vivo, 336 h, time 14 day
# [4] = Half life in Sprague-Dawley rat at 15 mg/kg, po measured after 48 hrs by LC-MS analysis; format: ADME, organism-based; details: in vivo
# [5] = target: T1, Dihydroorotate dehydrogenase (quinone), mitochondrial (Homo sapiens, UniProt Q02127)
# Description: Inhibition of human DHODH using dihydroorotate substrate preincubated for 30 mins followed by substrate addition by DCIP based microplate reader analysis
# [6] = Oral bioavailability in Sprague-Dawley rat at 15 mg/kg measured after 48 hrs by LC-MS analysis; format: ADME, organism-based; details: in vivo
# [7] = Clearance in Sprague-Dawley rat at 15 mg/kg, po measured after 48 hrs by LC-MS analysis; format: ADME, organism-based; details: in vivo
# [8] = test system: L02; experiment: cells; format: ADME, cell-based; details: Homo sapiens, L02, 96 h
# Description: Cytotoxicity against human L02 cells assessed as cell growth inhibition incubated for 96 hrs by MTT assay
# [9] = test system: Raji; experiment: Induction of cell cycle arrest in human Raji cells assessed as accumulation of cells at S phase at 0.25 uM after 24 hrs by propidium iodide staining based flow cytometric analysis (reference value: 45.7%); format: functional
# [10] = test system: Raji; experiment: Antiproliferative activity against human Raji cells assessed as cell growth inhibition at 0.4 uM preincubated with uridine for 24 hrs followed by compound addition and measured after 72 hrs by MTT assay; format: functional; design: scale not given: the % may be the effect or the level left
# [11] = test system: Raji; experiment: Antiproliferative activity against human Raji cells assessed as cell growth inhibition at 0.2 uM incubated for 96 hrs by MTT assay; format: functional; design: scale not given: the % may be the effect or the level left
# [12] = Cmax in Sprague-Dawley rat at 15 mg/kg, po measured after 48 hrs by LC-MS analysis; format: ADME, organism-based; design: dose 15 mg/kg, time 48 hrs, route po; details: in vivo
# [13] = test system: HEL; experiment: Antiproliferative activity against human HEL cells assessed as cell growth inhibition incubated for 96 hrs by MTT assay; format: functional, cell-based
# [14] = test system: Raji; experiment: Antiproliferative activity against human Raji cells assessed as cell growth inhibition at 0.4 uM incubated for 96 hrs by MTT assay; format: functional; design: scale not given: the % may be the effect or the level left
# [15] = target: T1, Dihydroorotate dehydrogenase (quinone), mitochondrial; details: dose 100.0 nM, time 30.0 min
# [16] = test system: Mus musculus; experiment: Toxicity in NOD-SCID mouse xenografted with human Raji cells assessed as change in ALT level at 40 mg/kg, po administered for 25 days; format: organism-based; details: in vivo, 600 h, time 25 day
# [17] = test system: Daudi; experiment: Antiproliferative activity against human Daudi cells assessed as cell growth inhibition incubated for 96 hrs by MTT assay; format: functional, cell-based
# [18] = test system: SU-DHL-6; experiment: Antiproliferative activity against human SU-DHL-6 cells assessed as cell growth inhibition incubated for 96 hrs by MTT assay; format: functional, cell-based; details: SU-DHL-6, 96 h
# [19] = test system: Mus musculus; experiment: Toxicity in NOD-SCID mouse xenografted with human Raji cells assessed as mortality at 40 mg/kg, po administered for 25 days; format: organism-based; details: in vivo, 600 h, time 25 day
# [20] = test system: Mus musculus; experiment: Toxicity in NOD-SCID mouse xenografted with human Raji cells assessed as change in AST level at 40 mg/kg, po administered for 25 days; format: organism-based; details: in vivo, 600 h, time 25 day
# [21] = test system: Raji; experiment: Antiproliferative activity against human Raji cells assessed as cell growth inhibition at 0.1 uM incubated for 96 hrs by MTT assay; format: functional; design: scale not given: the % may be the effect or the level left
# [22] = test system: Raji; experiment: Antitumor activity against human Raji cells xenografted in NOD-SCID mouse assessed as tumor growth inhibition at 40 mg/kg, po administered for 25 days; format: functional; details: 600 h, time 25 day, read-out: TGI
# [23] = Drug distribution in NOD-SCID mouse tumor at 40 mg/kg, po administered for 25 days by LC-MS analysis; format: ADME, organism-based, Neoplasm; details: in vivo, 600 h, time 25 day
# [24] = test system: Raji; experiment: Antiproliferative activity against human Raji cells assessed as cell growth inhibition at 0.06 uM preincubated with uridine for 24 hrs followed by compound addition and measured after 72 hrs by MTT assay; format: functional; design: scale not given: the % may be the effect or the level left
# [25] = Drug distribution in NOD-SCID mouse liver at 40 mg/kg, po administered for 25 days by LC-MS analysis; format: ADME, organism-based; details: in vivo, 600 h, time 25 day
# [26] = Acute toxicity in BALB/c mouse assessed as effect on lung at 400 mg/kg, po measured on day 14 by H and E staining based assay; format: organism-based; details: in vivo, 336 h, time 14 day
# [27] = test system: Raji; experiment: Antiproliferative activity against human Raji cells assessed as cell growth inhibition incubated for 96 hrs by MTT assay; format: functional, cell-based
# [28] = Acute toxicity in BALB/c mouse assessed as effect on spleen at 400 mg/kg, po measured on day 14 by H and E staining based assay; format: organism-based; details: in vivo, 336 h, time 14 day
# [29] = Acute toxicity in BALB/c mouse assessed as effect on kidney at 400 mg/kg, po measured on day 14 by H and E staining based assay; format: organism-based; details: in vivo, 336 h, time 14 day
# [30] = test system: Raji; experiment: Antitumor activity against human Raji cells xenografted in NOD-SCID mouse assessed as tumor growth inhibition at 15 mg/kg, po administered for 25 days; format: functional; details: 600 h, time 25 day, read-out: TGI
# [31] = AUC(0 to t) in Sprague-Dawley rat at 5 mg/kg, iv measured after 48 hrs by LC-MS analysis; format: ADME, organism-based; design: time 48 hrs, dose 5 mg/kg, route iv; details: in vivo, 48 h
# [32] = test system: Raji; experiment: Induction of cell cycle arrest in human Raji cells assessed as accumulation of cells at S phase at 0.125 uM after 24 hrs by propidium iodide staining based flow cytometric analysis (reference value: 45.7%); format: functional
# [33] = test system: Raji; experiment: Antitumor activity against human Raji cells xenografted in NOD-SCID mouse assessed as tumor growth inhibition at 30 mg/kg, po administered for 25 days; format: functional; details: 600 h, time 25 day, read-out: TGI
# [34] = Half life in Sprague-Dawley rat at 5 mg/kg, iv measured after 48 hrs by LC-MS analysis; format: ADME, organism-based; details: in vivo
# [35] = test system: Mus musculus; experiment: Toxicity in NOD-SCID mouse xenografted with human Raji cells assessed as change in UREAL at 40 mg/kg, po administered for 25 days; format: organism-based; details: in vivo, 600 h, time 25 day
# [36] = Microsomal stability in human liver microsomes assessed as half life at 1 uM measured upto 120 mins in presence of NADPH by LC-MS analysis; format: ADME, Microsome
# [37] = test system: Raji; experiment: Induction of cell cycle arrest in human Raji cells assessed as accumulation of cells at S phase at 0.5 uM after 24 hrs by propidium iodide staining based flow cytometric analysis (reference value: 45.7%); format: functional
# [38] = test system: HL-60; experiment: Antiproliferative activity against human HL-60 cells assessed as cell growth inhibition incubated for 96 hrs by MTT assay; format: functional, cell-based; details: HL-60, 96 h
# [39] = Plasma protein binding in rat at 10 uM incubated for 5 hrs by LC-MS analysis; format: ADME, cell-free; details: read-out: PPB (converted)
# [40] = Acute toxicity in BALB/c mouse assessed effect on body weight at 400 mg/kg, po; format: organism-based; details: in vivo
# [41] = Drug distribution in NOD-SCID mouse lung at 40 mg/kg, po administered for 25 days by LC-MS analysis; format: ADME, organism-based; details: in vivo, 600 h, time 25 day
# [42] = test system: MV4-11; experiment: Antiproliferative activity against human MV4-11 cells assessed as cell growth inhibition incubated for 96 hrs by MTT assay; format: functional, cell-based; details: MV4-11, 96 h
# [43] = test system: SUD4; experiment: Antiproliferative activity against human SU-DHL-4 cells assessed as cell growth inhibition incubated for 96 hrs by MTT assay; format: functional, cell-based; details: SU-DHL-4, 96 h
# T1 sequence (Q02127 whole entry): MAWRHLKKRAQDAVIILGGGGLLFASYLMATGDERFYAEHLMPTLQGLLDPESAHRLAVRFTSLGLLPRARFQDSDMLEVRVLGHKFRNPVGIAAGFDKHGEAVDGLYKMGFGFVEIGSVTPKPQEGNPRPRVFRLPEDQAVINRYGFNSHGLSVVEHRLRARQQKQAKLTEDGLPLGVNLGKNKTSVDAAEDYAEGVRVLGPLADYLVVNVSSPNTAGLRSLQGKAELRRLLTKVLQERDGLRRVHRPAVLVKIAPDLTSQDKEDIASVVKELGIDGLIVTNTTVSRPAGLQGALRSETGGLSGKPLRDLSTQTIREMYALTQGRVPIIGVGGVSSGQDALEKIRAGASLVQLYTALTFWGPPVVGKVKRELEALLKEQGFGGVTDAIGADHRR
structure (smiles),measurement,setting,value
C/C(O)=C(\C#N)C(=O)Nc1cc(O[C@@H](C)C(F)(F)F)c(C(=O)Nc2c(F)cccc2F)cc1F,"fraction unbound at 5 h, 0.1 µM",[1],0.099
same,Activity,[2],Non-Toxic
same,Activity,[3],Non-Toxic
same,half-life,[4],10.1 h
same,IC50,[5],0.016 µM
same,bioavailability,[6],31.1%
same,CL/F,[7],0.6 L/h/kg
same,IC50,[8],0.518 µM
same,Activity,[9],70.3%
same,Activity,[10],21.3%
same,Activity,[11],58.7%
same,Cmax,[12],1.27 µg/mL
same,IC50,[13],0.02 µM
same,Activity,[14],64.5%
same,inhibition,[15],88.9%
same,Activity,[16],Non-Toxic
same,IC50,[17],0.02 µM
same,IC50,[18],0.02 µM
same,Activity,[19],Non-Toxic
same,Activity,[20],Non-Toxic
same,Activity,[21],43.1%
same,inhibition in vivo at 40 mg/kg,[22],83.6%
same,Drug uptake,[23],Active
same,Activity,[24],3.3%
same,Drug uptake,[25],Active
same,Activity,[26],Non-Toxic
same,IC50,[27],0.0077 µM
same,Activity,[28],Non-Toxic
same,Activity,[29],Non-Toxic
same,inhibition in vivo at 15 mg/kg,[30],72.2%
same,AUCt,[31],31.644 µg·h/mL
same,Activity,[32],64.4%
same,inhibition in vivo at 30 mg/kg,[33],81.4%
same,half-life,[34],7.1 h
same,Activity,[35],Non-Toxic
same,half-life at 1 µM,[36],23.1 h
same,Activity,[37],86.9%
same,IC50,[38],0.02 µM
same,"fraction unbound at 5 h, 10 µM",[39],0.007
same,Activity,[40],Non-Toxic
same,Drug uptake,[41],Active
same,IC50,[42],0.02 µM
same,IC50,[43],0.02 µM
